Laboratory results: patent US11352396B2, “Antimicrobial peptides and methods of using same” (Zoetis Services LLC, priority 2017, dated 2022)

What was measured:
[1] = test system: cRBC; format: cell-based, canine
Protocol: SEQ ID NO: 1 was selected for further research. Toxicity of SEQ ID NO: 1 to eukaryotic blood cells was compared to that of tachyplesin (SEQ ID NO: 13). A standard, well referenced red blood cell hemolysis assay was employed against multiple species to test the lysis potential of the peptides. Red blood cells (RBCs) were prepared and isolated by several centrifuge and wash steps to remove the plasma fraction. A dose titration (50 μM to 0.05 μM) of test peptides and control peptide melittin were spotted from 50 mM stocks in a 384 well plate. Prepared RBCs were incubated with peptide for one hour at 37° C. Percent hemolysis was measured by optical density at 405 nm and utilizing 1% TritonX100 as hundred percent effect (HPE) and phosphate buffer alone as zero percent effect (ZPE).

[2] = test system: MSSP (Methicillin-Susceptible Staphylococcus pseudintermedius); test: MIC against selected strains of MSSP; format: cell-based; parameters: key to MIC MSSP 84658 / MIC MSSP 86000 / MIC MSSP 71990 / MIC MSSP 72036 / MIC MSSP 78032: MIC in μM; key to MIC MSSP 86001 / MIC MSSP 72191 / MIC MSSP 76986 / MIC MSSP 77378: MIC in μM (first well with no visible growth); MIC MSSP 49051 / MIC MSSP 81923 / MIC MSSP 84250 / Effect on MSSP 86000 / Effect on MSSP 72036 / Effect on MSSP 78032: unit not given beside the values; settings: for MIC MSSP 49051: strain 49051, Table 3; for MIC MSSP 71990: strain 71990, Table 3; for MIC MSSP 72036: strain 72036, Table 3; for MIC MSSP 72191: strain 72191, Table 3; for MIC MSSP 76986: strain 76986, Table 3; for MIC MSSP 77378: strain 77378, Table 3; for MIC MSSP 78032: strain 78032, Table 3; for MIC MSSP 81923: strain 81923, Table 3; for MIC MSSP 84250: strain 84250, Table 3; for MIC MSSP 84658: strain 84658, Table 3; for MIC MSSP 86000: strain 86000, Table 3; for MIC MSSP 86001: strain 86001, Table 3
Protocol: (§1) Peptides according to SEQ ID NOs as listed in Table 1 were prepared by a commercial manufacturer (CS Bio, Menlo Park, Calif.) using solid phase synthesis. Antimicrobial activity was assessed by determining the Minimal Inhibitory Concentration (MIC) against S. aureus and E. coli. Briefly, Microbroth MICs were performed using CLSI methodology (VET01-S2). For S. aureus and E. coli ATCC strains, TSA with 5% lysed horse blood agar was used for overnight culturing at 37° C. ambient air. A 0.5 mM stock for each peptide was made with cell culture water, 0.01% acetic acid and serially diluted and spotted (10 μL) in a 96-well plate for in assay dose titration concentration of 50 μM to 0.05 μM. 0.5 McFarland Standard of each strain was diluted 1:250 in Mueller-Hinton Broth (MHB). 90 μL of culture suspension was then added upon drug in the 96-well plate for overnight incubation for 18-20 hours. The MIC was determined visually at the first well of no visible growth at the corresponding concentration.
(§2) Antimicrobial activity of the peptides listed in Table 2 against different strains of MSSP (Methicillin-Susceptible Staphylococcus pseudintermedius) and MRSP (Methicillin-Resistant Staphylococcus pseudintermedius) was further assessed. The results are in Tables 3 and 4, respectively.

[3] = test system: Canine-derived epithelial keratinocyte (CPEK) cells; format: cell-based
Protocol: Safety of the peptides listed in table 2 was determining by measuring cell viability. Canine-derived epithelial keratinocyte (CPEK) cells were propagated to determine cell viability in the presence of peptides. Cells were grown from a frozen stock in CnT-09-5 (with supplements) pre-warmed media in a T75 flask and incubated overnight at 37° C., 5% CO2. Cells were washed with phosphate buffer and replenished with pre-warmed CnT-05-9 media and repeated for several days until cells reached a density of 6.6×10^4 cells/mL. Cells were then transferred to a 384 well plate, allowed to settle and dosed with peptides and melittin control peptide (50 μM to 0.05 μM) and incubated overnight at 37° C., 5% CO2. 0.1% TritonX100 as (HPE) and phosphate buffer alone as (ZPE) were added to the plates to calculate percent effect once the assay was terminated with 10 μL CELLTITER-GLO® assay reagents for a luminescent readout.

[4] = test system: MRSP (Methicillin-Resistant Staphylococcus pseudintermedius); test: MIC against selected strains of MRSP; format: cell-based; parameters: key to MIC MRSP 88493 / MIC MRSP 72035 / MIC MRSP 81926: MIC in μM; key to MIC MRSP 71994 / MIC MRSP 79882 / MIC MRSP 80729 / MIC MRSP 86002: MIC in μM (first well with no visible growth); key to MIC MRSP 72192 / MIC MRSP 76923 / MR 71994 / Mr 88493 / MR 72035 / MR 72192 / MR 76923 / MR 79882 / MR 80279 / MR 81926 / MR 86002 / MR 87665: MIC in μM (visual, first well with no growth); MIC MRSP 87655: unit not given beside the values; settings: for MIC MRSP 71994: strain 71994, Table 4; for MIC MRSP 72035: strain 72035, Table 4; for MIC MRSP 72192: strain 72192, Table 4; for MIC MRSP 76923: strain 76923, Table 4; for MIC MRSP 79882: strain 79882, Table 4; for MIC MRSP 80729: strain 80729, Table 4; for MIC MRSP 81926: strain 81926, Table 4; for MIC MRSP 86002: strain 86002, Table 4; for MIC MRSP 87655: strain 87655, Table 4; for MIC MRSP 88493: strain 88493, Table 4
Protocol: as §1, §2

Substance | cRBC (50 μM) [1] | MIC MSSP 49051 [2] | MIC MSSP 71990 [2] | MIC MSSP 72036 [2] | MIC MSSP 72191 [2] | MIC MSSP 76986 [2] | MIC MSSP 77378 [2] | MIC MSSP 78032 [2] | MIC MSSP 81923 [2] | MIC MSSP 84250 [2] | MIC MSSP 84658 [2] | MIC MSSP 86000 [2] | MIC MSSP 86001 [2] | CPEK (50 μM) [3] | MIC MRSP 71994 [4] | MIC MRSP 72035 [4] | MIC MRSP 72192 [4] | MIC MRSP 76923 [4] | MIC MRSP 79882 [4] | MIC MRSP 80729 [4] | other results
6 (KWCFRVCRRGICYRRCRD; Artificial Antimicrobial peptide) [compound 6] | 1.1 | 3.1 | 3.1 | 3.1 | 3.1 | 3.1 | 1.6 | 3.1 | 3.1 | 3.1 | 3.1 | 3.1 | 3.1 | 4.1 | 3.1 | 3.1 | 3.1 | 3.1 | 3.1 | 3.1 | MIC MRSP 81926 [4]: 3.1; MIC MRSP 86002 [4]: 3.1; MIC MRSP 87655 [4]: 3.1; MIC MRSP 88493 [4]: 3.1
7 (KWCFRVCYRGVCYRRCRD; Artificial Antimicrobial peptide) [compound 7] | 84.1 | 1.6 | 1.6 | 1.6 | 1.6 | 1.6 | 0.8 | 1.6 | 1.6 | 1.6 | 1.6 | 1.6 | 1.6 | 11.3 | 1.6 | 1.6 | 1.6 | 1.6 | 1.6 | 1.6 | MIC MRSP 81926 [4]: 1.6; MIC MRSP 86002 [4]: 1.6; MIC MRSP 87655 [4]: 1.6; MIC MRSP 88493 [4]: 1.6
8 (KWCFRVCYRGACYRRCRD; Artificial Antimicrobial peptide) [compound 8] | 30.2 | 1.6 | 1.6 | 1.6 | 1.6 | 1.6 | 0.8 | 1.6 | 3.1 | 1.6 | 1.6 | 1.6 | 1.6 | 24.6 | 1.6 | 1.6 | 1.6 | 1.6 | 1.6 | 1.6 | MIC MRSP 81926 [4]: 1.6; MIC MRSP 86002 [4]: 1.6; MIC MRSP 87655 [4]: 1.6; MIC MRSP 88493 [4]: 1.6
9 (KWCFRVCYRGFCYRRCRD; Artificial Antimicrobial peptide) [compound 9] | 101.3 | 1.6 | 1.6 | 0.8 | 1.6 | 0.8 | 0.4 | 0.8 | 1.6 | 1.6 | 1.6 | 0.8 | 0.8 | 52.3 | 1.6 | 1.6 | 1.6 | 1.6 | 0.8 | 1.6 | MIC MRSP 81926 [4]: 1.6; MIC MRSP 86002 [4]: 1.6; MIC MRSP 87655 [4]: 1.6; MIC MRSP 88493 [4]: 1.6
10 (KWCFRVCYRGICYHRCRD; Artificial Antimicrobial peptide) [compound 10] | 101.1 | 1.6 | 1.6 | 1.6 | 1.6 | 1.6 | 0.8 | 1.6 | 1.6 | 1.6 | 1.6 | 1.6 | 1.6 | 31.5 | 1.6 | 1.6 | 1.6 | 1.6 | 0.8 | 1.6 | MIC MRSP 81926 [4]: 1.6; MIC MRSP 86002 [4]: 1.6; MIC MRSP 87655 [4]: 1.6; MIC MRSP 88493 [4]: 1.6
